Measured values published in patent US20230232827A1, “METHOD FOR C[…] RUST FUNGUS RESISTANT TO QoI FUNGICIDES” (SUMITOMO CHEMICAL COMPANY, LIMITED, priority 2020, published 2023).

Each compound was assayed on soybean rust fungus (Phakopsora pachyrhizi) having an amino acid substitution of F129L in a mitochondrial cytochrome b protein (assay: Leaf disc test of control of soybean rust (lesion area) after spraying the test compound). Conditions: Comparative Test Example 1, according to Test Example 1.
Type: in vivo
Protocol: A true leaf of a soybean (cultivar: Kurosengoku) was cut into a diameter of 1 cm to prepare each leaf disc. To each well of a 24 well microplate was dispensed 1 mL of an agar medium (agar concentration 1.2%), and then one of said leaf disc was placed on each well. To a mixture of Sorpol (registered trademark) 1200KX (0.5 μL), DMSO (4.5 μL), and xylene (5 μL) was added a DMSO solution (20 μL) comprising a test compound (10000 ppm), and the resulting mixture was mixed. The resulting mixture was diluted with ion exchange water to prepare a spray solution comprising a prescribed concentration of the test compound. Said spray solution was sprayed into each leaf disc at a ratio of 10 μL per leaf disc. After 1 day, an aqueous suspension of spores of soybean rust fungus (Phakopsora pachyrhizi) having an amino acid substitution of F129L in a mitochondrial cytochrome b protein (1.0×10^5/mL) was inoculated by spraying on each leaf disc. After the inoculation, the microplate was placed into an artificial climate chamber (Lighting: 6 hours, Lights-out: 18 hours, Temperature: 23° C., Humidity: 60%). After 1 day, the leaf discs were air-dried until water droplets on the surfaces of the leaf discs disappeared, and the microplate was placed into the artificial climate chamber again for 12 days. Then, lesion area of soybean rust was investigated. As a result, when the prescribed concentration was 50 ppm, each lesion area of leaf disc treated with any one of the Present compound 2 to 13, 15 to 30, 33 to 40, 42 to 49, 52 to 56, 58, 60, 65, 66, or 74 to 79 as the test compound was 30% or less relative to the lesion area of non-treated leaf disc. Here, the term of “non-treated” means that a spray solution comprising a test compound was not sprayed into a leaf disc.
Each test is carried out according to the Test Example 1 by using any one of the Present compound S as the test compound with a prescribed concentration of 12.5 ppm. As a result, control effects on soybean rust can be confirmed in the leaf discs treated with test compounds.
Each test is carried out according to the Test Example 1 by using any one of the Present compound S as the test compound with a prescribed concentration of 3.1 ppm. As a result, control effects on soybean rust can be confirmed in the leaf discs treated with test compounds.
Each test was carried out according to the Test Example 1 by using the Present compound 4, 3, 11, or 42, or azoxystrobin, dimoxystrobin, or metominostrobin as the test compound with a prescribed concentration of 50 ppm.

`CO/C=C(/C(=O)OC)c1ccccc1Oc1cc(Oc2ccccc2C#N)ncn1` [Azoxystrobin, reference compound] and `CNC(=O)/C(=N/OC)c1ccccc1Oc1ccccc1` [Metominostrobin, reference compound] are the same in “Lesion area (%) at the concentration of 50 ppm” value (“Lesion area (%)” below): 100% for the first, 100% for the second.

First: CNC(=O)/C(=N/OC)c1ccccc1COc1cc(C)ccc1C [Dimoxystrobin, reference compound]
Second: CO/C=C(/C(=O)OC)n1c2ccccc2c2ccc(Br)cc21 [Present compound 4]
The “Lesion area (%)” value of the first is higher: 100% for the first, 0% for the second.

`CO/C=C(/C(=O)OC)n1ncc2ccc(-c3ccccc3)cc21` [Present compound 3] and `CO/C=C(/C(=O)OC)n1ccc2ccc(/C(C)=N/OC)cc21` [Present compound 42] are the same in “Lesion area (%)” value: 0% for the first, 0% for the second.

In the case of `CO/C=C(/C(=O)OC)n1ccc2ccc(C#CC3CC3)cc21` [Present compound 11], the “Lesion area (%)” value is reported as 0%.
